Measurements reported in ChEMBL document CHEMBL3407451, “Novel approach to bis(indolyl)methanes: de novo synthesis of 1-hydroxyiminomethyl derivatives with anti-cancer properties” (Eur J Med Chem, 2015).

What was measured:
[1] = Cytotoxicity against mouse S17 cells assessed as reduction in cell viability after 72 hrs by MTT colorimetric assay; format: cell-based; details: S17, 72 h
[2] = system: N9; assay: Selectivity index, ratio of IC50 for human MDA-MB-468 cells to IC50 for mouse N9 cells; format: functional
[3] = system: HepG2; assay: Selectivity index, ratio of IC50 for human HepG2 cells to IC50 for mouse N9 cells; format: functional
[4] = system: THP-1; assay: Cytotoxicity against human THP1 cells assessed as reduction in cell viability after 72 hrs by MTT colorimetric assay; format: functional, cell-based; details: THP-1, 72 h
[5] = system: EL4; assay: Cytotoxicity against mouse EL4 cells assessed as reduction in cell viability after 72 hrs by MTT colorimetric assay; format: functional, cell-based; details: EL4, 72 h
[6] = system: EL4; assay: Selectivity index, ratio of IC50 for mouse EL4 cells to IC50 for mouse N9 cells; format: functional
[7] = system: MDA-MB-468; assay: Cytotoxicity against human MDA-MB-468 cells assessed as reduction in cell viability after 72 hrs by MTT colorimetric assay; format: functional, cell-based; details: MDA-MB-468, 72 h
[8] = system: HepG2; assay: Selectivity index, ratio of IC50 for human HepG2 cells to IC50 for mouse S17 cells; format: functional
[9] = system: THP-1; assay: Selectivity index, ratio of IC50 for human THP1 cells to IC50 for mouse S17 cells; format: functional
[10] = Cytotoxicity against human U937 cells assessed as reduction in cell viability after 72 hrs by MTT colorimetric assay; format: functional, cell-based; details: U-937, 72 h
[11] = system: HepG2; assay: Cytotoxicity against human HepG2 cells assessed as reduction in cell viability after 72 hrs by MTT colorimetric assay; format: functional, cell-based; details: HepG2, 72 h
[12] = system: RAW264.7; assay: Cytotoxicity against mouse RAW264.7 cells assessed as reduction in cell viability after 72 hrs by MTT colorimetric assay; format: functional, cell-based; details: RAW264.7, 72 h
[13] = system: N9; assay: Selectivity index, ratio of IC50 for human THP1 cells to IC50 for mouse N9 cells; format: functional
[14] = system: N9; assay: Selectivity index, ratio of IC50 for human U937 cells to IC50 for mouse N9 cells; format: functional
[15] = system: N9; assay: Selectivity index, ratio of IC50 for mouse RAW264.7 cells to IC50 for mouse N9 cells; format: functional
[16] = Selectivity index, ratio of IC50 for human MDA-MB-468 cells to IC50 for mouse S17 cells; format: functional

Compound | IC50 [1] [µM] | Ratio IC50 [2] | Ratio IC50 [3] | IC50 [4] [µM] | IC50 [5] [µM] | Ratio IC50 [6] | IC50 [7] [µM] | Ratio IC50 [8] | Ratio IC50 [9] | IC50 [10] [µM] | IC50 [11] [µM] | IC50 [12] [µM] | Ratio IC50 [13] | Ratio IC50 [14] | Ratio IC50 [15] | Ratio IC50 [16]
COc1cc([C@@H]2c3cc4c(cc3[C@@H](O[C@@H]3O[C@@H]5CO[C@@H](C)O[C@H]5[C@H](O)[C@H]3O)[C@H]3COC(=O)[C@H]23)OCO4)cc(OC)c1O [ETOPOSIDE] | 10.4 | 0.88 | 1.71 | 1.82 | 4.9 | 0.8 | 6.69 | 8.97 | 8.55 | 1.1 | 1.4 | 0.82 |  |  |  | 
C/C(=N\O)C(c1c[nH]c2ccccc12)c1c[nH]c2ccccc12 | 26.1 |  |  | 30.7 | 23.9 |  |  |  | 0.62 | 42.5 |  |  |  |  |  | 
O/N=C(/c1ccc(Br)cc1)C(c1c[nH]c2ccccc12)c1c[nH]c2ccccc12 | 16.3 | 1.04 | 1.38 | 1.62 | 1.65 | 13.94 | 22.1 | 0.98 | 10.04 | 1.64 | 16.6 | 23.9 | 14.2 | 14.02 | 0.96 | 0.73
C/C(=N/O)C(c1c[nH]c2ccccc12)c1c[nH]c2ccccc12 | 35.8 |  |  | 57.6 | 39 |  |  |  | 0.6 | 59.3 |  |  |  |  |  | 
O/N=C(/c1ccccc1)C(c1c[nH]c2ccccc12)c1c[nH]c2ccccc12 | 26.3 | 2.72 | 1.05 | 18.1 | 11.9 | 2.45 | 10.7 | 0.94 |  | 34.1 | 28 | 12.2 | 1.61 | 0.86 | 2.4 | 2.45
Cn1cc(C(/C(=N\O)c2ccc(Br)cc2)c2cn(C)c3ccccc23)c2ccccc21 | 51.4 | 0.31 | 0.56 | 124 | 106 | 0.19 | 63.7 | 1.44 | 0.41 | 97 | 35.7 | 42.2 | 0.16 | 0.2 | 0.47 | 0.81
O/N=C(/c1ccc(F)cc1)C(c1c[nH]c2ccccc12)c1c[nH]c2ccccc12 | 24.9 |  |  | 23 | 16.9 |  |  |  | 0.89 | 28 |  |  |  |  |  | 
